# Experimental data published in patent publication US8791123B2, “Substituted pyrazolo[1,5-a]pyrimidine compounds as Trk kinase inhibitors” (Array Biopharma, Inc., priority 2009, dated 2014).
# Where two headings read alike, the source gives them in different places.
# Columns and labels:
# Assay type in all cases: biochemical
# [1] = target: GST-tagged human Jak3 kinase domain (Homo sapiens (Human), UniProt P52333); assay: Jak3 Inhibition Assay (Omnia kinase assay); conditions: Table 2; for IC50: 500 μM ATP
# Protocol: (§1) The assays described in Examples C, D, E and F for the determination of JAK1, JAK2, JAK3 and Tyk2 kinase activity, respectively, utilized the Omnia® Kinase fluorescence peptide substrate-based technology (Invitrogen). […] The reactions were therefore read at excitation 360 nm and emission was measured at 485 nm every 50 seconds for 45 minutes using a PerkinElmer EnVision Multilabel Plate Reader.
# (§2) The final buffer conditions for each of the JAK1, JAK2, JAK3 and Tyk2 assays were as follows: 25 mM HEPES, pH 7.4, 10 mM MgCl2, 0.01% Triton X-100 and 1 mM DTT.
# (§3) Compounds were prepared at 50× the final concentration in DMSO by conducting 3-fold serial dilutions from a 500-μM or 1000-μM intermediate dilution to give a 10-point dosing curve having a high dose of 10 or 20 μM. Two-μL aliquots of these were transferred to a fresh plate for a ten-fold intermediate dilution with assay buffer. Five-μL aliquots of the diluted compounds were then transferred to 20-μL of assay mixtures described in Examples C, D, E and F for a final concentration of DMSO of 2%. A standard or reference compound was typically included on each assay plate to validate that plate. For each plate, percent of control (POC) values were calculated for each well according to the following equation:
# (§4) [formula] • where • Xmax=Average Uninhibited Controls • Xmin=Average Background IC50's were estimated from the POC's using a standard 4-parameter logistic model:
# (§5) [formula] • where • A=Minimum Y (Bottom Asymptote) • B=Maximum Y (Top Asymptote) • C=EC50 • D=Slope Factor • X=Compound Concentration (nM) • Y=POC
# (§6) The IC50 is defined as the concentration of inhibitor at which the POC equals 50 for the fitted curve.
# Compounds of Formula I were screened for their ability to inhibit Jak3 using the general enzyme inhibition assay method, in which the assay mixture contained 500 μM ATP, 10 μM Omnia® Y7 peptide (Catalog # IVGN KNZ3071C, Invitrogen Corporation, Carlsbad, Calif.) and 1.5 nM Jak3 in a total volume of 20 μL. GST-tagged human Jak3 kinase domain comprising amino acids 781-1124 was purchased from Invitrogen Corporation, Carlsbad, Calif. (catalog # IVGN PV3855).
# [2] = target: Human Tyk2 kinase domain (Homo sapiens (Human), UniProt P29597); assay: Tyk2 Inhibition Assay (Omnia kinase assay); conditions: Table 2; for IC50: 500 μM ATP
# Protocol: as §1, §2, §3, §4, §5, §6
# Compounds of Formula I were screened for their ability to inhibit Tyk2 using the general enzyme inhibition assay method, in which the assay mixture contained 500 μM ATP, 8 μM Omnia® Y12 peptide (Catalog # IVGN KPZ3121C; Invitrogen Corporation, Carlsbad, Calif.) and 1 nM Tyk2 in a total volume of 20 μL. Human Tyk2 kinase domain, comprising amino acids 886 to 1187 with 10 additional histidine residues (histidine tag) on the carboxy terminus, was expressed and purified from bacculovirus in-house at Array BioPharma Inc. (Boulder, Colo.). The histidine tag was cleaved after purification using standard conditions.
# [3] = target: TrkA (histidine-tagged recombinant human TrkA, cytoplasmic domain) (Homo sapiens (Human), UniProt P04629); assay: TrkA ELISA Assay
# Outline: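 ELISA read-out: a peroxidase-linked anti-phosphotyrosine antibody (PY20, 0.2 μg/mL) with TMB substrate, absorbance at 450 nm after acid stop. The plate-bound substrate was poly(Glu,Ala,Tyr; 6:3:1) at 0.025 mg/mL, phosphorylated by the recombinant His-tagged human TrkA cytoplasmic domain in the presence of inhibitors.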
# [4] = target: GST-tagged human Jak1 kinase domain (Homo sapiens (Human), UniProt P23458); assay: Jak1 Inhibition Assay (Omnia kinase assay); conditions: Table 2; for IC50: 500 μM ATP
# Protocol: as §1, §2, §3, §4, §5, §6
# Compounds of Formula I were screened for their ability to inhibit Jak1 using the general enzyme inhibition assay method, in which the assay mixture contained 500 μM ATP, 8 μM Omnia® Y12 peptide (Catalog # IVGN KPZ3121C; Invitrogen Corporation, Carlsbad, Calif.) and 5 nM Jak1 in a total volume of 20 μL. […] (catalog # IVGN PV4774).
# [5] = target: Human Jak2 kinase domain (Homo sapiens (Human), UniProt O60674); assay: Jak2 Inhibition Assay (Omnia kinase assay); conditions: for inhibition at 1 µM: 1000 nM test compound
# [6] = Table 1, ELISA, 500 μM ATP, read-out: TrkA Enzyme IC50
# [7] = Table 1, 500 μM ATP, >1000 nM when >50% inhibition not observed at 1000 nM, read-out: Jak2 Enzyme IC50
# [8] = Table 2, 500 μM ATP, read-out: Jak2 IC50
# Chain of TrkA (histidine-tagged recombinant human TrkA, cytoplasmic domain) (P04629 440-796): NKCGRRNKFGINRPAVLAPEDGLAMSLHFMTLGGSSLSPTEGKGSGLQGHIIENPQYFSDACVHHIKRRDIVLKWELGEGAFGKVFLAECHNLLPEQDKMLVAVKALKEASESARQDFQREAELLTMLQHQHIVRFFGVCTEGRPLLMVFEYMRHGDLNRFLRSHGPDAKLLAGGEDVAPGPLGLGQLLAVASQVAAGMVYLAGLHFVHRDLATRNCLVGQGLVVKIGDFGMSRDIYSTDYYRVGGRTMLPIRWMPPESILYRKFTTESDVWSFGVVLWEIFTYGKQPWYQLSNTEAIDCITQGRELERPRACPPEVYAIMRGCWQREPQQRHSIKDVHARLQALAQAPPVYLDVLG
# Chain of Human Tyk2 kinase domain (P29597 886-1187): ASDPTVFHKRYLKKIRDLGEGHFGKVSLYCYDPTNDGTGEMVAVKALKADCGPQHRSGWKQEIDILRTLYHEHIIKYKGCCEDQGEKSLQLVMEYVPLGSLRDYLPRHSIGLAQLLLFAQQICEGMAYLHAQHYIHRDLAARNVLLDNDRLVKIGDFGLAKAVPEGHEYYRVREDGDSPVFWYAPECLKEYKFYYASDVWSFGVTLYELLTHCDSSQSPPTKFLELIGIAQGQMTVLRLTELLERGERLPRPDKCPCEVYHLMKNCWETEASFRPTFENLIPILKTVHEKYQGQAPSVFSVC
# Chain of Human Jak2 kinase domain (O60674 808-1132): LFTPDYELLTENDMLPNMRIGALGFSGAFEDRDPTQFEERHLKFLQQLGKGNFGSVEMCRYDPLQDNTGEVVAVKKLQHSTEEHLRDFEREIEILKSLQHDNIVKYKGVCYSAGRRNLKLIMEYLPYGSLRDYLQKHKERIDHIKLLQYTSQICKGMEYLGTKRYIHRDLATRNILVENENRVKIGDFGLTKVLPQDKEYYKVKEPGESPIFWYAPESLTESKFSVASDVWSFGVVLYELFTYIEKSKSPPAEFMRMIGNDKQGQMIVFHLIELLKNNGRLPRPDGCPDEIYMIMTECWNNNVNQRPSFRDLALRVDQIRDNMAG
# Chain of GST-tagged human Jak1 kinase domain (P23458 866-1154): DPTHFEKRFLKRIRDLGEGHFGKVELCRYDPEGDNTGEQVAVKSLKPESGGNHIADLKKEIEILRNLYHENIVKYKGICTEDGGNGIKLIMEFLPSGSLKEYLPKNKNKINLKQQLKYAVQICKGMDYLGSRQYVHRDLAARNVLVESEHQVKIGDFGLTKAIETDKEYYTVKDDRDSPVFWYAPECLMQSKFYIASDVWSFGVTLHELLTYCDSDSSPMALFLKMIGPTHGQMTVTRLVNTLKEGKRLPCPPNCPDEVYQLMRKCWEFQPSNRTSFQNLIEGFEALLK
# Chain of GST-tagged human Jak3 kinase domain (P52333 781-1124): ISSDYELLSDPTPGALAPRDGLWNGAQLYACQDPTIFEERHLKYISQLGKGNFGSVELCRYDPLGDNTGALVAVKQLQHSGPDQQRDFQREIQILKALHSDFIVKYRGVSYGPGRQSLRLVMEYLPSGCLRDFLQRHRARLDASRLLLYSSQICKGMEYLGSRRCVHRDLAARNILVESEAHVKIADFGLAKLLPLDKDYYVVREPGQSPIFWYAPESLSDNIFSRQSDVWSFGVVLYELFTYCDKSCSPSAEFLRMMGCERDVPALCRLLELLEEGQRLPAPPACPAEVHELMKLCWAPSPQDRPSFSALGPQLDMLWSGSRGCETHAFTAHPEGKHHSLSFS
IC50 [1] [nM],IC50 [2] [nM],"IC50 [3, 6] [nM]","IC50 ([3]; Table 2, read-out: TrkA IC50) [nM]",IC50 [4] [nM],"IC50 [5, 7] [nM]","IC50 [5, 8] [nM]","inhibition at 1 µM ([1]; read-out: Jak3 (% inhibition at 1000 nM), 1000 nM test compound) [%]","inhibition at 1 µM ([2]; read-out: Tyk2 (% inhibition at 1000 nM), 1000 nM test compound) [%]","inhibition at 1 µM ([4]; read-out: Jak1 (% inhibition at 1000 nM), 1000 nM test compound) [%]","inhibition at 1 µM ([5]; read-out: Jak2 (% inhibition at 1000 nM), Table 2) [%]","inhibition at 1 µM ([5]; read-out: Jak2 Enzyme (% inhibition at 1000 nM), Table 1) [%]",IC50 ([5]; read-out: Jak2 Enzyme IC50) [nM],Compound
> 1000,> 1000,9,9,> 1000,> 1000,> 1000,–,–,–,–,–,–,"O=C(NC1(C(F)(F)F)CC1)c1cnn2ccc(N3CCC[C@@H]3c3cncc(F)c3)nc12 [Example 98, (R)-5-(2-(5-fluoropyridin-3-yl)pyrrolidin-1-yl)-N-(1-(trifluoromethyl)cyclopropyl)pyrazolo[1,5-a]pyrimidine-3-carboxamide]"
> 1000,> 1000,3.2,3.2,> 1000,> 1000,> 1000,–,–,–,–,–,–,"CC1(NC(=O)c2cnn3ccc(N4CCC[C@@H]4c4cncc(F)c4)nc23)CC1 [Example 91, (R)-5-(2-(5-fluoropyridin-3-yl)pyrrolidin-1-yl)-N-(1-methylcyclopropyl)pyrazolo[1,5-a]pyrimidine-3-carboxamide]"
> 1000,> 1000,7.7,7.6,> 1000,> 1000,> 1000,–,–,–,–,–,–,"O=C(NCC1CC1)c1cnn2ccc(N3CCC[C@@H]3c3cncc(F)c3)nc12 [Example 106, (R)-N-(cyclopropylmethyl)-5-(2-(5-fluoropyridin-3-yl)pyrrolidin-1-yl)pyrazolo[1,5-a]pyrimidine-3-carboxamide]"
> 1000,> 1000,5.1,5.1,> 1000,> 1000,> 1000,–,–,–,–,–,–,"CC(C)NC(=O)c1cnn2ccc(N3CCC[C@@H]3c3cncc(F)c3)nc12 [Example 93, (R)-5-(2-(5-fluoropyridin-3-yl)pyrrolidin-1-yl)-N-isopropylpyrazolo[1,5-a]pyrimidine-3-carboxamide]"
> 1000,> 1000,6.4,6.3,> 1000,> 1000,> 1000,–,–,–,–,–,–,"C[C@@H](NC(=O)c1cnn2ccc(N3CCC[C@@H]3c3cncc(F)c3)nc12)C1CC1 [Example 123, N-((R)-1-cyclopropylethyl)-5-((R)-2-(5-fluoropyridin-3-yl)pyrrolidin-1-yl)pyrazolo[1,5-a]pyrimidine-3-carboxamide]"
> 1000,> 1000,7.4,7.4,> 1000,> 1000,> 1000,–,–,–,–,–,–,"O=C(NC1CC1)c1cnn2ccc(N3CCC[C@@H]3c3cncc(F)c3)nc12 [Example 52, (R)—N-cyclopropyl-5-(2-(5-fluoropyridin-3-yl)pyrrolidin-1-yl)pyrazolo[1,5-a]pyrimidine-3-carboxamide]"
> 1000,> 1000,17.1,29.8,> 1000,> 1000,> 1000,8.9,10.7,12.8,18.1,5.2,–,"Cc1ncc(F)cc1[C@H]1CCCN1c1ccn2ncc(C(=O)NC3CC3)c2n1 (stereo in doubt) [Example 181, N-cyclopropyl-5-(2-(5-fluoro-2-methylpyridin-3-yl)pyrrolidin-1-yl)pyrazolo[1,5-a]pyrimidine-3-carboxamide]"
> 1000,> 1000,2.9,2.9,> 1000,759,759,–,–,–,–,–,–,"C[C@H](NC(=O)c1cnn2ccc(N3CCC[C@@H]3c3cncc(F)c3)nc12)C1CC1 [Example 124, N-((S)-1-cyclopropylethyl)-5-((R)-2-(5-fluoropyridin-3-yl)pyrrolidin-1-yl)pyrazolo[1,5-a]pyrimidine-3-carboxamide]"
> 1000,> 1000,2.4,2.4,> 1000,> 1000,> 1000,–,–,–,–,–,–,"Cc1ncc(F)cc1[C@H]1CCCN1c1ccn2ncc(C(=O)NC3(C)CC3)c2n1 [Example 190, (R)-5-(2-(5-fluoro-2-methylpyridin-3-yl)pyrrolidin-1-yl)-N-(1-methylcyclopropyl)pyrazolo[1,5-a]pyrimidine-3-carboxamide]"
> 1000,> 1000,29.9,17.1,> 1000,> 1000,> 1000,–,–,–,–,–,–,"CNC(=O)c1cnn2ccc(N3CCC[C@@H]3c3cncc(F)c3)nc12 [Example 114, (R)-5-(2-(5-fluoropyridin-3-yl)pyrrolidin-1-yl)-N-methylpyrazolo[1,5-a]pyrimidine-3-carboxamide]"
> 1000,–,–,–,546,–,–,–,–,–,–,–,–,"COc1ncc(F)cc1[C@H]1CCCN1c1ccn2ncc(C(=O)N[C@H]3CC[C@H](O)CC3)c2n1 [Example 140, 5-((R)-2-(5-fluoro-2-methoxypyridin-3-yl)pyrrolidin-1-yl)-N-((trans)-4-hydroxycyclohexyl)pyrazolo[1,5-a]pyrimidine-3-carboxamide]"
–,–,1.4,–,–,> 1000,–,–,–,–,–,–,–,"COc1ncc(F)cc1[C@H]1CCCN1c1ccn2ncc(C(=O)NCCCCO)c2n1 [Example 151, (R)-5-(2-(5-fluoro-2-methoxypyridin-3-yl)pyrrolidin-1-yl)-N-(4-hydroxybutyl)pyrazolo[1,5-a]pyrimidine-3-carboxamide]"
–,–,2.4,–,–,–,–,–,–,–,–,–,> 1000,"COc1ccc(F)cc1[C@H]1CCCN1c1ccn2ncc(C(=O)NC[C@@H](O)CO)c2n1 [Example 56, N—((R)-2,3-dihydroxypropyl)-5-((R)-2-(5-fluoro-2-methoxyphenyl)pyrrolidin-1-yl)pyrazolo[1,5-a]pyrimidine-3-carboxamide]"
–,–,11.7,–,–,> 1000,–,–,–,–,–,–,–,"O=C(NC1CCC1)c1cnn2ccc(N3CCC[C@@H]3c3cncc(F)c3)nc12 [Example 101, (R)-N-cyclobutyl-5-(2-(5-fluoropyridin-3-yl)pyrrolidin-1-yl)pyrazolo[1,5-a]pyrimidine-3-carboxamide]"
–,–,15.3,–,–,> 1000,–,–,–,–,–,–,–,"CC(C)NC(=O)c1cnn2ccc(N3[C@H](CO)CC[C@@H]3c3cncc(F)c3)nc12 [Example 215, 5-((2R,5S)-2-(5-fluoropyridin-3-yl)-5-(hydroxymethyl)pyrrolidin-1-yl)-N-isopropylpyrazolo[1,5-a]pyrimidine-3-carboxamide]"
–,–,74.2,–,–,> 1000,–,–,–,–,–,–,–,"O=C(c1cnn2ccc(N3CCC[C@@H]3c3cc(F)ccc3F)nc12)N1CC[C@@H](O)C1 [Example 19, (5-((R)-2-(2,5-difluorophenyl)pyrrolidin-1-yl)pyrazolo[1,5-a]pyrimidin-3-yl)((R)-3-hydroxypyrrolidin-1-yl)methanone]"
–,–,3,–,–,666,–,–,–,–,–,–,–,"Cn1cc(F)cc([C@H]2CCCN2c2ccn3ncc(C(=O)NC4CCC4)c3n2)c1=O [Example 230, (R)-N-cyclobutyl-5-(2-(5-fluoro-1-methyl-2-oxo-1,2-dihydropyridin-3-yl)pyrrolidin-1-yl)pyrazolo[1,5-a]pyrimidine-3-carboxamide]"
